Legend:
[1] = Test of stability in human plasma; details: pH 7.2
Protocol: Human plasma was diluted two-fold with 50 mM sodium phosphate buffer (pH=7.2) for use as the test plasma solution. The test sample was made a DMSO solution of 1 mM concentration.
198 μl of the above two-fold diluted plasma solution warmed to 37° C. was added to 2 μl of the test sample DMSO solution and the resultant mixture was stirred and incubated at 37° C. After 0, 5, and 15 minutes, 800 μl of acetonitrile was mixed with the test sample-plasma mixture to remove the protein, then a centrifugation operation (12,000 rpm, 1 minute) was carried out and the supernatant obtained. This was diluted two-fold with distilled water and measured for of the test sample by HPLC analysis.
For the rate of recovery from the plasma, the rates of recovery at different times were calculated based on a calibration line of the test sample in a DMSO standard solution. The half-life (t1/2) in plasma was calculated by exponential recurrence analysis from the rates of recovery of these different times.

[2] = tested on: human chymase induced vascular permeability; test: Test of human chymase induced vascular permeability exacerbation reaction; format: in vivo, Wister male rats; details: 10 mg/kg orally, 30 minutes before intracutaneous human chymase (20 mU), rat back skin, Evans Blue
Protocol: Wister male rats (body weight 200 to 220 g, Charles River Japan) were used. In the backs of the rats from which the hair had been shaved off, 100 μl (20 mU: 1U being amount of enzyme for producing 1 nmol of AMC in 1 minute from Suc-Ala-Ala-Pro-Phe-MCA at pH7.5 and 30° C.) of a solution of the human chymase enzyme solution purified in evaluation Example 1 diluted 100-fold by PBS (phosphate buffered saline) was injected intracutaneously, then immediately thereafter a 0.5% (w/w) Evans Blue solution was administered from the tail artery. After 30 minutes, the rats were sacrificed by draining their blood under anesthesia with ether and the amount of dye leaking out to the back skin was measured. The region of the skin where the dye leaked out was cut off and 1.0 ml of 1N KOH solution was added and the resultant mixture was allowed to stand at 37° C. overnight. Next, 4 ml of an acetone-0.6N phosphoric acid (13:5) mixture was added to extract the dye. The absorbance at 650 nm of the supernatant was measured. […]
Next, 10 mg/kg of the compound of Example 18 was orally administered. 30 minutes later, 100 μl (20 mU) of human chymase the same as the non-drug administered group was injected intracutaneously and the amount of dye leaked out similarly measured. The rate of suppression of the amount of dye leakage due to the compound was calculated according to the following calculation formula. […]

[3] = target: T1, Human heart chymase (Homo sapiens, UniProt P23946); test: Measurement of chymase inhibitory activity; format: biochemical; details: purified human heart chymase, substrate Suc-Ala-Ala-Pro-Phe-MCA, pH 7.5, 30° C., 10 min preincubation
T1 construct: Human heart chymase was purified according to the method of Urata et al; from tissue; host or cells: human heart
T1 sequence (P23946 22-247): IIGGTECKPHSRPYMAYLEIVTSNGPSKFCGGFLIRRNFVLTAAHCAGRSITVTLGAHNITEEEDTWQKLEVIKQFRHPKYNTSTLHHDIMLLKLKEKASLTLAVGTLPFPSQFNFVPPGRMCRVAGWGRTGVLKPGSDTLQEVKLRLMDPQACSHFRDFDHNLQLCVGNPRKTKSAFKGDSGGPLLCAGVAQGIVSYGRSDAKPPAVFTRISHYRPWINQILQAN
Protocol: Human heart chymase was purified according to the method of Urata et al. (J. Biol. Chem., 1990, 265, 22348). The inhibitory activity of the quinazoline derivatives of the present invention with respect to chymase was measured in the following manner. That is, the purified enzyme solution was diluted to a suitable concentration with 0.1M tris-hydrochloride buffer (pH=7.5), 1M sodium chloride, and 0.01% TritonX-100 to In obtain an enzyme solution. A 10 mM dimethyl sulfoxide (hereinafter referred to as DMSO) solution of Suc-Ala-Ala-Pro-Phe-MCA (Peptide Institute) was diluted 20-fold at the time of use by 0.1M tris-hydrochlorate, 1M sodium chloride, and 0.01% TritonX-100 to obtain the substrate solution.
75 μl of the enzyme solution warmed to 30° C. was mixed with 5 μl of DMSO solution of the test sample. The mixture was preincubated at 30° C. for 10 minutes. Next, 20 μl of a substrate solution warmed to 30° C. was mixed with the test sample-enzyme mixture and incubated at 30° c. After 10 minutes, 50 μl of 30% acetic acid was added to stop the enzymatic reaction. The amount of the AMC produced was quantified using a fluorescent photometer. At the same time, a blind test was carried out by adding, instead of the test sample solution, 5 μl of DMSO and performing the same reaction. […]

[4] = human, plasma, pH 7.2

SMILES	half-life at 10 µM [1] [min]	further results
CS(=O)(=O)O.Nc1cccc(S(=O)(=O)n2c(=O)[nH]c3cc(Cl)ccc3c2=O)c1 [Example 34, 3-(3-aminobenzenesulfonyl)-7-chloro-2,4-(1H,3H)quinazolinedion methanesulfonic acid salt]	709	–
Nc1cc(S(=O)(=O)n2c(=O)[nH]c3ccc(Cl)cc3c2=O)ccc1C(=O)O [Example 32, 4-[(6-chloro-2,4(1H,3H)-quinazolinedion-3-yl)sulfonyl]anthranilic acid]	74	–
O=C(O)C1Oc2ccc(S(=O)(=O)n3c(=O)[nH]c4cc(Cl)ccc4c3=O)cc2NC1=O (racemic) [Example 29, (±)-6-[(7-chloro-2,4(1H,3H)-quinazolinedion-3-yl)sulfonyl]-3-oxo-1,4-benzoxazine-2-carboxylic acid]	> 240	–
Nc1cc(S(=O)(=O)n2c(=O)[nH]c3cc(Cl)ccc3c2=O)ccc1Cl [Example 8, 3-(3-amino-4-chlorobenzenesulfonyl)-7-chloro-2,4(1H,3H)-quinazolinedione]	29	–
COc1ccc(S(=O)(=O)n2c(=O)[nH]c3cc(Cl)ccc3c2=O)cc1NS(C)(=O)=O [Example 24, 7-chloro-3-(4-methoxy-3-methylsulfonylaminobenzenesulfonyl)-2,4(1H,3H)-quinazolinedione]	79	–
Nc1cc(S(=O)(=O)n2c(=O)[nH]c3cc(Cl)ccc3c2=O)ccc1C(=O)[O-].[Na+] [Example 18, 4-[(7-chloro-2,4(1H,3H)-quinazolinedion-3-yl)sulfonyl]anthranilic acid monosodium salt]	103	Rate of suppression of amount of leakage of dye [2]: 64%
O=C([O-])c1ccc(S(=O)(=O)n2c(=O)[nH]c3cc(Cl)ccc3c2=O)cc1O.[Na+] [Example 16, 4-[(7-chloro-2,4(1H,3H)-quinazolinedion-3-yl)sulfonyl]salicylic acid monosodium salt]	> 240	–
CC(C(=O)O)C(=O)Nc1cccc(S(=O)(=O)n2c(=O)[nH]c3cc(Cl)ccc3c2=O)c1 (centres unmarked) [Example 13, 2-{3-[(7-chloro-2,4(1H,3H)-quinazolinedion-3-yl)sulfonyl]phenylaminocarbonyl}propionic acid]	–	IC50 [3]: 300 nM; t1/2 [4]: 97 min
Nc1cccc(S(=O)(=O)n2c(=O)[nH]c3cc(Cl)ccc3c2=O)c1 [Example 12, 3-(3-aminobenzenesulfonyl)-7-chloro-2,4(1H,3H)-quinazolinedione]	249	–
Nc1ccccc1S(=O)(=O)n1c(=O)[nH]c2cc(Cl)ccc2c1=O [Example 2]	175	–
Cc1ccc(S(=O)(=O)n2c(=O)[nH]c3cc(Cl)ccc3c2=O)cc1N [Example 10, 3-(3-amino-4-methylbenzenesulfonyl)-7-chloro-2,4(1H,3H)-quinazolinedione]	167	–
COc1ccc(S(=O)(=O)n2c(=O)[nH]c3cc(Cl)ccc3c2=O)cc1NC(C)=O [Example 22, 3-(3-acetamide-4-methoxybenzenesulfonyl)-7-chloro-2,4(1H,3H)-quinazolinedione]	104	–
COc1ccc2c(=O)n(S(=O)(=O)c3ccc(C(=O)O)c(N)c3)c(=O)[nH]c2c1 [Example 27, 4-[(7-methoxy-2,4(1H,3H)-quinazolinedion-3-yl)sulfonyl]anthranilic acid]	263	–
O=c1[nH]c2cc(Cl)ccc2c(=O)n1S(=O)(=O)c1cccc(O)c1 [Example 1, 7-chloro-3-(3-hydroxybenzenesulfonyl)-2,4(1H,3H)-quinazolinedione]	78	–
Nc1cc(S(=O)(=O)n2c(=O)[nH]c3cc(Cl)ccc3c2=O)ccc1C(=O)O [Example 17, 4-[(7-chloro-2,4(1H,3H)-quinazolinedion-3-yl)sulfonyl]anthranilic acid]	260	–

Source: patent publication US6867214B1, “Quinazoline derivatives and pharmaceutical applications thereof” (Daiichi Suntory Pharma Co., Ltd., priority 1998, dated 2005)
